According to patent EP4610269A1, “UROKINASE PLASMINOGEN ACTIVATOR SURFACE RECEPTOR (UPAR) LIGANDS FOR DIAGNOSTIC OR THERAPEUTIC USE” (3B Pharmaceuticals GmbH, priority 2024, dated 2025):
pIC50: −log10 of the molar value. *1 amine or outer side, *2 acyl side, *3 side chain or, on linkers, in order; H or OH if unused. Where a SMILES comes first, the peptide text is derived from it. Bridges are numbered along the chain shown (N, C = ends). [ ]: non-standard residue; d: D form. The star is where a group is joined. X6 = O=C(O)CN1CCN(CC(=O)O)CCN(CC(=O)NCCCOCCOCCOCCCN*)CCN(CC(=O)O)CC1; DOTA = O=C(O)CN1CCN(CC(=O)O)CCN(CC(=O)*)CCN(CC(=O)O)CC1; Pro(cis-4-F) = O=C(O)[C@@H]1C[C@H](F)CN1; Glutaryl = O=C(CCCC(=O)[*:2])[*:1]; Gly(cPent) = N[C@H](C(=O)O)C1CCCC1; Hyp = O=C(O)[C@@H]1C[C@@H](O)CN1; hPhe = N[C@@H](CCc1ccccc1)C(=O)O; Pentanoyl(4-Me) = CC(C)CCC(=O)*; 2Thi = N[C@@H](Cc1cccs1)C(=O)O; Cit = NC(=O)NCCC[C@H](N)C(=O)O; Butoxycarbonyl = CCCCOC(=O)*; Suc = O=C(CCC(=O)[*:2])[*:1]; Nle = CCCC[C@H](N)C(=O)O; Nva = CCC[C@H](N)C(=O)O; Hexanoyl = CCCCCC(=O)*; Pentanoyl = CCCCC(=O)*; Bz = O=C(c1ccccc1)*; βAla = NCCC(=O)O

What was measured:
[1] = biological target: T1, uPAR-expressing HEC-265 human endometrial adenocarcinoma cells (Homo sapiens, UniProt Q03405); experiment: Competitive FACS binding assay; settings: pIC50 category of FACS binding
T1 construct: Cell surface uPAR-expressing HEC-265 human endometrial adenocarcinoma cells; host or cells: HEC-265
How it was run: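 Competitive displacement of a 10 nM biotinylated peptide from HEC-265 cells (1 h, 4 °C, PBS/1% BSA), detected via APC-streptavidin by flow cytometry. pIC50 from four-parameter logistic fit of median fluorescence versus concentration.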

human uPAR (uPAR-Fc) = biological target: T2, human uPAR (uPAR-Fc) (Homo sapiens, UniProt Q03405); experiment: Surface plasmon resonance (SPR) assay, single cycle kinetics; type: binding; settings: pKD category for uPAR SPR activity assay; uPAR-Fc on Protein A-Chip, single cycle kinetics, 25°C; read-out: pKD CAT (converted)
T2 construct: comprising amino acids Leu23-Arg303 according to UniProt entry Q03405.1; purchased R&D Systems 10378-UK-100
How it was run: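 uPAR-Fc (Leu23-Arg303 extracellular domains, human IgG1 Fc) captured on Protein A chip to ~2000 RU; single-cycle kinetics at 25°C in HEPES running buffer pH 7.4 with 0.1% DMSO. KD from double-referenced sensorgrams fitted to 1:1 Langmuir model, reported as pKD.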

T2 sequence (Q03405 23-303): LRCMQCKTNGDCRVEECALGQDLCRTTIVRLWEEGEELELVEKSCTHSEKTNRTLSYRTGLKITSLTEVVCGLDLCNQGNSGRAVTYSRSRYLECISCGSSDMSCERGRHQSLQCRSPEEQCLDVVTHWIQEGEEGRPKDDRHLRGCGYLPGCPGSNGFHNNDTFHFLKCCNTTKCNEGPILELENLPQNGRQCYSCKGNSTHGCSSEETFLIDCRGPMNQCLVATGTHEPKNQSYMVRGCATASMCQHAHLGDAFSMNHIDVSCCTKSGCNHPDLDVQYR
T1 sequence (Q03405 23-335): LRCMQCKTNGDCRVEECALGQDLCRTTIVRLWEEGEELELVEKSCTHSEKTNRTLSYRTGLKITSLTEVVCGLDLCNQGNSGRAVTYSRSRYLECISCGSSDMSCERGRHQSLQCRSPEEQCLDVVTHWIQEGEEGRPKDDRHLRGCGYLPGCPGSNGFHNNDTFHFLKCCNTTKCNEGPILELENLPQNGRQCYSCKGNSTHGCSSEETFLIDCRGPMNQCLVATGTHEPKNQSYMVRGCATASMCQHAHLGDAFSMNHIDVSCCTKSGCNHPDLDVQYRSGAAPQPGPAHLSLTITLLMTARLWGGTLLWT

| SMILES | pIC50 [1] | Kd (human uPAR (uPAR-Fc)) |
| --- | --- | --- |
| CCCC[C@@H]1NC(=O)[C@H]([C@@H](C)CC)NC(=O)[C@@H](C)NC(=O)[C@@H]2CCCN2C(=O)[C@H](Cc2ccccc2)NC(=O)[C@H](Cc2ccc(O)cc2)NC(=O)[C@H](CCC(N)=O)NC(=O)[C@H](CCCNC(N)=O)NC(=O)[C@@H](NC(=O)CCC(C)C)CSSC[C@@H](C(N)=O)NC1=O [UPAR-345, iHex-[Cys-Cit-Gln-Tyr-Phe-Pro-ala-Ile-Nle-Cys]-NH2] ({Pentanoyl(4-Me)}-C[Cit]QYFP[dA]I[Nle]C-NH2; disulfide 1-10) | ≥ 8.00 | 1.58 to 10 nM |
| CCCC[C@H](NC(=O)CCC(=O)NCCCOCCOCCOCCCNC(=O)CN1CCN(CC(=O)O)CCN(CC(=O)O)CCN(CC(=O)O)CC1)C(=O)N[C@@H](CC(=O)O)C(=O)N[C@@H](CC(C)C)C(=O)N[C@H]1CSSC[C@@H](C(N)=O)NC(=O)[C@H](CC(C)C)NC(=O)[C@H]([C@@H](C)CC)NC(=O)[C@H](C)NC(=O)[C@@H]2CCCN2C(=O)[C@H](Cc2ccccc2)NC(=O)[C@H](Cc2ccc(O)cc2)NC(=O)[C@H](CCSC)NC(=O)[C@H](CCCNC(=N)N)NC1=O [UPAR-347, DOTA-Ttds-Nle-Asp-Leu-[Cys-Arg-Met-Tyr-Phe-Pro-Ala-Ile-Leu-Cys]-NH2] ({X6-Suc}-[Nle]DLCRMYFPAILC-NH2; disulfide 4-13) | ≥ 8.00 | < 1.58 nM |
| CC(C)CCC(=O)N[C@H]1CSSC[C@@H](C(N)=O)NC(=O)[C@H](CC(C)C)NC(=O)[C@H](C2CCCC2)NC(=O)[C@@H](C)NC(=O)[C@@H]2CCCN2C(=O)[C@H](Cc2ccccc2)NC(=O)[C@H](Cc2ccc(O)cc2)NC(=O)[C@H](CCC(N)=O)NC(=O)[C@H](CCCNC(N)=O)NC1=O [UPAR-349, iHex-[Cys-Cit-Gln-Tyr-Phe-Pro-ala-Cpg-Leu-Cys]-NH2] ({Pentanoyl(4-Me)}-C[Cit]QYFP[dA][Gly(cPent)]LC-NH2; disulfide 1-10) | ≥ 8.00 | 1.58 to 10 nM |
| CC[C@H](C)[C@@H]1NC(=O)[C@@H](C)NC(=O)[C@@H]2C[C@H](F)CN2C(=O)[C@H](Cc2ccccc2)NC(=O)[C@H](Cc2ccc(O)cc2)NC(=O)[C@H](CCC(N)=O)NC(=O)[C@H](CCCNC(N)=O)NC(=O)[C@@H](NC(=O)CCC(C)C)CSSC[C@@H](C(N)=O)NC(=O)[C@H](CC(C)C)NC1=O [UPAR-354, iHex-[Cys-Cit-Gln-Tyr-Phe-4Cfp-ala-Ile-Leu-Cys]-NH2] ({Pentanoyl(4-Me)}-C[Cit]QYF[Pro(cis-4-F)][dA]ILC-NH2; disulfide 1-10) | ≥ 8.00 | < 1.58 nM |
| CCC[C@@H]1NC(=O)[C@H]([C@@H](C)CC)NC(=O)[C@@H]2C[C@@H](O)CN2C(=O)[C@@H]2CCCN2C(=O)[C@H](Cc2ccccc2)NC(=O)[C@H](Cc2ccc(O)cc2)NC(=O)[C@H](CCC(N)=O)NC(=O)[C@H](CCCNC(=N)N)NC(=O)[C@@H](NC(=O)c2ccccc2)CSSC[C@@H](C(N)=O)NC1=O [UPAR-356, Bz-[Cys-Arg-Gln-Tyr-Phe-Pro-Hyp-Ile-Nva-Cys]-NH2] (Bz-CRQYFP[Hyp]I[Nva]C-NH2; disulfide 1-10) | ≥ 8.00 | < 1.58 nM |
| CC[C@H](C)[C@@H]1NC(=O)[C@@H](CCCNC(=N)N)NC(=O)[C@@H]2CCCN2C(=O)[C@H](Cc2ccccc2)NC(=O)[C@H](Cc2ccc(O)cc2)NC(=O)[C@H](CCC(N)=O)NC(=O)[C@H](CCCNC(N)=O)NC(=O)[C@@H](NC(=O)CCC(C)C)CSSC[C@@H](C(N)=O)NC(=O)[C@H](CC(C)C)NC1=O [UPAR-357, iHex-[Cys-Cit-Gln-Tyr-Phe-Pro-arg-Ile-Leu-Cys]-NH2] ({Pentanoyl(4-Me)}-C[Cit]QYFP[dR]ILC-NH2; disulfide 1-10) | ≥ 8.00 | 1.58 to 10 nM |
| CCCCOC(=O)N[C@H]1CSSC[C@@H](C(N)=O)NC(=O)[C@H](CCC)NC(=O)[C@H]([C@@H](C)CC)NC(=O)[C@@H]2C[C@@H](O)CN2C(=O)[C@@H]2C[C@H](F)CN2C(=O)[C@H](Cc2ccccc2)NC(=O)[C@H](Cc2ccc(O)cc2)NC(=O)[C@H](CCC(N)=O)NC(=O)[C@H]([C@@H](C)O)NC1=O [UPAR-358, Butoc-[Cys-Thr-Gln-Tyr-Phe-4Cfp-Hyp-Ile-Nva-Cys]-NH2] (Butoxycarbonyl-CTQYF[Pro(cis-4-F)][Hyp]I[Nva]C-NH2; disulfide 1-10) | ≥ 8.00 | < 1.58 nM |
| CC[C@H](C)[C@@H]1NC(=O)[C@@H](C)NC(=O)[C@@H]2CCCN2C(=O)[C@H](Cc2ccccc2)NC(=O)[C@H](Cc2ccc(O)cc2)NC(=O)[C@H](CCC(N)=O)NC(=O)[C@H](CCCNC(N)=O)NC(=O)[C@@H](NC(=O)CCCC(=O)O)CSSC[C@@H](C(N)=O)NC(=O)[C@H](CC(C)C)NC1=O [UPAR-359, Glutar-[Cys-Cit-Gln-Tyr-Phe-Pro-ala-Ile-Leu-Cys]-NH2] (Glutaryl-C[Cit]QYFP[dA]ILC-NH2; disulfide 1-10) | ≤ 6.90 | > 100 nM |
| CCCCC(=O)N[C@H]1CSSC[C@@H](C(N)=O)NC(=O)[C@H](CC(C)C)NC(=O)[C@H]([C@@H](C)CC)NC(=O)[C@@H](C)NC(=O)[C@@H]2CCCN2C(=O)[C@H](Cc2ccccc2)NC(=O)[C@H](Cc2ccc(O)cc2)NC(=O)[C@H](CCC(N)=O)NC(=O)[C@H](CCCNC(N)=O)NC1=O [UPAR-362, Pent-[Cys-Cit-Gln-Tyr-Phe-Pro-ala-Ile-Leu-Cys]-NH2] (Pentanoyl-C[Cit]QYFP[dA]ILC-NH2; disulfide 1-10) | ≥ 8.00 | < 1.58 nM |
| CCCCCC(=O)N[C@@H](CC(=O)O)C(=O)N[C@@H](CC(C)C)C(=O)N[C@H]1CSSC[C@@H](C(N)=O)NC(=O)[C@H](CC(C)C)NC(=O)[C@H]([C@@H](C)CC)NC(=O)[C@H](C)NC(=O)[C@@H]2CCCN2C(=O)[C@H](Cc2ccccc2)NC(=O)[C@H](Cc2ccc(O)cc2)NC(=O)[C@H](CCSC)NC(=O)[C@H](CCCNC(=N)N)NC1=O [UPAR-363, Hex-Asp-Leu-[Cys-Arg-Met-Tyr-Phe-Pro-Ala-Ile-Leu-Cys]-NH2] (Hexanoyl-DLCRMYFPAILC-NH2; disulfide 3-12) | ≥ 8.00 | < 1.58 nM |
| CCCCC(=O)N[C@H]1CSSC[C@@H](C(N)=O)NC(=O)[C@H](CCC)NC(=O)[C@H]([C@@H](C)CC)NC(=O)[C@@H]2C[C@@H](O)CN2C(=O)[C@@H]2CCCN2C(=O)[C@H](Cc2ccccc2)NC(=O)[C@H](CCc2ccccc2)NC(=O)[C@H](CCC(N)=O)NC(=O)[C@H](CCCNC(=N)N)NC1=O [UPAR-366, Pent-[Cys-Arg-Gln-Hfe-Phe-Pro-Hyp-Ile-Nva-Cys]-NH2] (Pentanoyl-CRQ[hPhe]FP[Hyp]I[Nva]C-NH2; disulfide 1-10) | 7.50 to 7.90 | 10 to 100 nM |

The remaining lines, values ahead:

| pIC50 [1] | Kd (human uPAR (uPAR-Fc)) | SMILES |
| --- | --- | --- |
| 7.50 to 7.90 | 1.58 to 10 nM | CCCCC(=O)N[C@H]1CSSC[C@@H](C(=O)NCCC(N)=O)NC(=O)[C@H](CCC)NC(=O)[C@H]([C@@H](C)CC)NC(=O)[C@@H]2C[C@@H](O)CN2C(=O)[C@@H]2CCCN2C(=O)[C@H](Cc2ccccc2)NC(=O)[C@H](Cc2ccc(O)cc2)NC(=O)[C@H](CCC(N)=O)NC(=O)[C@H](CCCNC(N)=O)NC1=O [UPAR-353, Pent-[Cys-Cit-Gln-Tyr-Phe-Pro-Hyp-Ile-Nva-Cys]-Bal-NH2] (Pentanoyl-C[Cit]QYFP[Hyp]I[Nva]C[βAla]-NH2; disulfide 1-10) |
| ≥ 8.00 | < 1.58 nM | CCCCC(=O)N[C@H]1CSSC[C@@H](C(N)=O)NC(=O)[C@H](CCC)NC(=O)[C@H]([C@@H](C)CC)NC(=O)[C@@H]2C[C@@H](O)CN2C(=O)[C@@H]2CCCN2C(=O)[C@H](Cc2cccs2)NC(=O)[C@H](Cc2ccc(O)cc2)NC(=O)[C@H](CCCCNC(=O)CN2CCN(CC(=O)O)CCN(CC(=O)O)CCN(CC(=O)O)CC2)NC(=O)[C@H](CCCNC(N)=O)NC1=O [UPAR-360, Pent-[Cys-Cit-Lys(DOTA)-Tyr-Thi-Pro-Hyp-Ile-Nva-Cys]-NH2] (Pentanoyl-C[Cit]K(DOTA)Y[2Thi]P[Hyp]I[Nva]C-NH2; disulfide 1-10) |
| ≥ 8.00 | < 1.58 nM | CCCCC(=O)N[C@H]1CSSC[C@@H](C(N)=O)NC(=O)[C@H](CCC)NC(=O)[C@H]([C@@H](C)CC)NC(=O)[C@@H]2C[C@@H](O)CN2C(=O)[C@@H]2CCCN2C(=O)[C@H](Cc2ccccc2)NC(=O)[C@H](Cc2ccc(O)cc2)NC(=O)[C@H](CCC(N)=O)NC(=O)[C@@H]2CCCN2C1=O [UPAR-361, Pent-[Cys-Pro-Gln-Tyr-Phe-Pro-Hyp-Ile-Nva-Cys]-NH2] (Pentanoyl-CPQYFP[Hyp]I[Nva]C-NH2; disulfide 1-10) |
| ≥ 8.00 | < 1.58 nM | CCCCC(=O)N[C@H]1CSSC[C@@H](C(N)=O)NC(=O)[C@H](CCC)NC(=O)[C@H]([C@@H](C)CC)NC(=O)[C@@H]2C[C@@H](O)CN2C(=O)[C@@H]2C[C@H](F)CN2C(=O)[C@H](Cc2ccccc2)NC(=O)[C@H](Cc2ccc(O)cc2)NC(=O)[C@H](CCCCNC(=O)CN2CCN(CC(=O)O)CCN(CC(=O)O)CCN(CC(=O)O)CC2)NC(=O)[C@H](CCCNC(N)=O)NC1=O [UPAR-365, Pent-[Cys-Cit-Lys(DOTA)-Tyr-Phe-4Cfp-Hyp-Ile-Nva-Cys]-NH2] (Pentanoyl-C[Cit]K(DOTA)YF[Pro(cis-4-F)][Hyp]I[Nva]C-NH2; disulfide 1-10) |
| ≥ 8.00 | 10 to 100 nM | CC[C@H](C)[C@@H]1NC(=O)[C@@H](CCCCNC(=O)CN2CCN(CC(=O)O)CCN(CC(=O)O)CCN(CC(=O)O)CC2)NC(=O)[C@@H]2CCCN2C(=O)[C@H](Cc2ccccc2)NC(=O)[C@H](Cc2ccc(O)cc2)NC(=O)[C@H](CCC(N)=O)NC(=O)[C@H](CCCNC(=N)N)NC(=O)[C@@H](NC(=O)CCC(C)C)CSSC[C@@H](C(N)=O)NC(=O)[C@H](CC(C)C)NC1=O [UPAR-367, iHex-[Cys-Arg-Gln-Tyr-Phe-Pro-lys(DOTA)-Ile-Leu-Cys]-NH2] ({Pentanoyl(4-Me)}-CRQYFP[dK](DOTA)ILC-NH2; disulfide 1-10) |
